From publication PMC7144373, “Composition and Orientation of the Core Region of Novel HIV-1 Entry Inhibitors Influences Metabolic Stability” (Molecules, 2020)

How the values were obtained:
[1] = system: CYP3A4; parameters: method as in doi:10.1093/ofid/ofz360.2178; settings: cited from earlier work
[2] = system: HIV-1B41 Env pseudotyped HIV-1; test: Single-round HIV-1 infection assay (luciferase reporter); settings: for IC50: Human immunodeficiency virus 1, U87/CD4/CCR5, 48 h, read-out: IC50 against HIV-1B41 Env pseudotyped HIV-1; for IC50 against HIV-1B41 Env pseudotyped HIV-1: U87.CD4.CCR5 cells, single-round infection, 48 h
Procedure: HEK293T cells were plated in 6-well plates with density of 1 × 10^6 cells/well. After 24 h, the two vectors (vector 1 and vector 2) were co-transfected in a 3:4 ratio, respectively [16]. Vector 1 is an HIV-1 pNL4-3-Luc+R-E plasmid with two main features. The vector contains a premature stop codon in the Env gene and replaces HIV-1 Nef gene with the luciferase-reporter gene [19]. Vector 2 is a plasmid expressing the HIV-1B41 gp160 Env [20]. Transient transfections of these vectors were carried out via calcium phosphate (ProFection Mammalian Transfection System, Promega, Madison, WI) for 5 h in DMEM without supplements. After the 5 h incubation period, the medium was replaced with fresh culture media. Seventy-two hours post-transfection, virus was collected by filtering supernatants. The result was single-round infectious virus with pseudotyped envelopes that contained a luciferase reporter [16]. This was aliquoted and stored at −80 °C.
The single-round HIV-1 infection assay was performed as previously described [19, 21, 22]. U87.CD4.CCR5 cells were seeded in Greiner Bio-one 96-well luminometer-compatible tissue culture plates with a density of 1.2 × 10^4 cells/well. After 24 h, compounds underwent serial dilutions in DMEM. DMSO was used as a vehicle control (Sigma). These dilutions were mixed with thawed pseudotyped HIV-1 virus (normalized to p24 content) and added to the U87 cells 100 µL/well. The plates were incubated for 48 h at 37 °C. Post-incubation, the medium was aspirated from each well, and 50 μL/well of 1X luciferase lysis buffer (Promega) was added. The plates were placed at −80 °C for one freeze-thaw cycle. After thawing, 50 µL/well of the luciferase assay substrate (Promega) was added and the luciferase activity of each well was measured by a GloMax 96 microplate luminometer (Promega).

[3] = Metabolic stability in human liver microsomes; settings: for k (rate of metabolism): 1.0 µM compound, 0.5 mg/mL HLM, NADPH, 37 °C; for Eh (hepatic extraction ratio): (Clh/Q) × 100; for Clapp: extrapolated for a human with scaling factors; for Clh: extrapolated, Q = 20 mL/min/kg; for half-life at 1 µM / microsomal CLint at 1 µM: human, human liver microsomes, pH 7.4
Procedure: Metabolic stability analysis was performed as outlined in Lu et al..
Preparation of solutions. Test compound was weighed and dissolved in 100% DMSO to get 10 mM stock solution. The stock solution was diluted to 100 μM with mixture of acetonitrile and H2O (1:1). The final concentrations of DMSO and acetonitrile were equal to or less than 0.1%. […]
Microsomal incubation. Liver microsomes incubations were conducted in duplicate in 96-well plates. […] Reactions were terminated at various time points (0, 5, 10, 20, 40 min) by adding 150 µL of ice-cold methanol and acetonitrile (1:1, v/v) containing the internal standard.
LC-MS/MS analysis: A Waters liquid chromatographic system was used. […] The flow rate was maintained at 0.6 mL/min. Detection was performed on an API4000 Q-Trap mass spectrometer equipped with TurboIonSpray (ESI) Interface (Applied Biosystems, Concord, Ontario, Canada). Analyst 1.5 software packages (Applied Biosystems) were used to control the LC-MS/MS system, and for data acquisition and processing.
Data analysis: The peak area ratio of a test compound to internal standard was plotted as a percentage of the relevant zero time point control (%remaining) for each reaction. The rate of metabolism (k) is the slope of the linear regression from log percentage remaining versus incubation time.

[4] = Cellular toxicity (CCK-8 cell viability); settings: human, U87.CD4.CCR5 cells
[5] = system: U87.CD4.CCR5 cells; test: Cellular toxicity (CCK-8 cell viability)

SMILES | Primary metabolizing isoform as determined [1] | IC50 [2] [nM] | k (rate of metabolism) [3] | Eh (hepatic extraction ratio) [3] [%] | Clapp [3] [mL/min/kg] | Clh [3] [mL/min/kg] | half-life at 1 µM [3] [min] | microsomal CLint at 1 µM [3] [µL/min/mg] | Metabolic stability compared with temsavir/BMS-626529 ([3]; human liver microsome half-lives) | CC50 at 48 h [4] [µM] | Toxicity in words [5] | IC50 against HIV-1B41 Env pseudotyped HIV-1 [2]
COc1cnc(-n2cnc(C)n2)c2[nH]cc(C(=O)C(=O)N3CCN(C(=O)c4ccccc4)CC3)c12 [BMS-626529, reference compound] | CYP3A4 | 0.05 ± 0.006 |  |  |  |  |  |  |  |  |  | 
COc1cnc(-n2cnc(C)n2)c2[nH]cc(C(=O)C(=O)N3CC4CN(C(=O)c5ccccc5)CC4C3)c12 (centres unmarked) [SC11] |  | 2 ± 0.2 | 0.07253 | 87.49 | 139.887 | 17.498 | 9.6 | 145 |  |  |  | 
COc1cnc(-n2cnc(C)n2)c2[nH]cc(C(=O)C(=O)N3Cc4cnn(-c5ccccc5)c4C3)c12 [SC12] |  | 6 ± 0.3 | 0.1058 | 91.0753 | 204.1 | 18.22 | 6.55 | 212 |  |  |  | 
COc1cnc(-n2cnc(C)n2)c2[nH]cc(C(=O)C(=O)N3CC(CCC(=O)c4ccccc4)C3)c12 [SC15] |  | 7 ± 0.1 | 0.05268 | 83.55 | 101.588 | 16.710 | 13.2 | 105 |  |  |  | 
COc1cnc(-n2cnc(C)n2)c2[nH]cc(C(=O)C(=O)NC3C4CN(C(=O)c5ccccc5)CC43)c12 (centres unmarked) [SC28] |  |  | 0.00479 | 31.61 | 9.245 | 6.322 | 145 | 9.6 | more than twice the metabolic stability of temsavir/BMS-626529 | > 400 | very low toxicities | 
COc1cnc(-n2cnc(C)n2)c2[nH]cc(C(=O)C(=O)N3C[C@@H]4[C@H](C3)[C@H]4NC(=O)c3ccccc3)c12 [SC46] |  | 91.5 | 0.0076 | 42.28 | 14.657 | 8.455 | 91.2 | 15.2 |  | > 1000 | very low toxicities | low nanomolar range
COc1cnc(-n2cnc(C)n2)c2[nH]cc(C(=O)C(=O)N3CC(C)N(C(=O)c4ccccc4)C(C)C3)c12 (centres unmarked) [SC54, 1-(4-benzoyl-3,5-dimethylpiperazin-1-yl)-2-(4-methoxy-7-(3-methyl-1H-1,2,4-triazol-1-yl)-1H-pyrrolo[2,3-c]pyridin-3-yl)ethane-1,2-dione] |  | 0.41 ± 0.061 | 0.02223 | 68.19 | 42.88 | 13.64 | 31.2 | 44.5 |  |  |  | low nanomolar range
C[C@]12CC[C@H]3[C@@H](CCC4=CC(=O)CC[C@@]43C)[C@@H]1CC[C@@H]2O [Testosterone, reference compound] |  |  | 0.05134 |  | 99.005 | 16.639 |  |  |  |  |  | 
